The values that follow come from patent publication US12637487B2 (priority 2017, dated 2026).

In one data set the test system is virus. In words: Antiviral effect of AA011 and VK021 alone. In kind it is cell-based.
The test system of data set [1] is Human Immunodeficiency Virus (HIV). Kind of data set: MD36792 experiments against human immunodeficiency virus (MT-4 cell protection). In kind it is cell-based. The settings on record: MT-4 cells, LAI virus. The protocol:
• 1. […] Cell: MT4 cells. • 3. Virus: Human Immunodeficiency Virus (HIV). • 4. Experimental reagents: RPMI-1640 medium, CellTiter-Glo detection kit (Promega) and other experimental reagents.
Experimental principle: MT-4 cell protection experiments were used to detect compounds against viruses.
Experimental steps: A 3-fold diluted drug was added to a 96-well plate, which incubates the LAI virus and MT-4 cells and inoculates it into the well plate. After culture, when the virus infects the control wells, a significant CPE appears. Reagent CellTiter-Glo was added and mixed, then the chemiluminescence signal is to be detected.
The experiment set the cell control (uninfected cell control), virus control, and positive drug control (Zidovudine, AZT).

The conditions of data set [2]: at 1000 μM.
The next data set deals with ICR mice. Kind of data set: Acetic acid-induced twisting (writhing) model, analgesic effect. It is filed as in vivo. Particulars: for Twisting Number Mean: 1 hour before 0.8% acetic acid i.p., 10 mice; for analgesic effect: acetic acid-induced model, mice. The protocol: Experimental method: Animals were adaptively fed for 5 days, and the body weight of the mice was weighed. […] The mice assigned to MD36792 group and the positive control group were given the corresponding drugs. After 1 hour of administration, the mice in each group were intraperitoneally injected with 0.8% acetic acid (0.2 mL/head). The twisting number of the mice were observed and recorded within 15 minutes.
(In general: An intraperitoneal irritant provokes the stretching counted in writhing tests.)

Data set [3] concerns Hepatitis C virus (HCV type 2a, JFH1-Luc virus strain). Kind of data set: MD36792 experiment against hepatitis C virus (Rluc reporter, Huh7.5.1 cells). It is filed as cell-based.
In another data set the test system is Hepatitis B virus (HBV). Kind of data set: MD36792 experiment against hepatitis B virus (HBeAg/HBsAg ELISA, HepAD38 cells). It is filed as cell-based. Particulars: 72 hours, from 333 μM. In general terms: An ELISA detects its analyte on a solid surface through an enzyme-linked reagent.
In data set [4] the test system is Ebola virus infected people. In kind it is in vivo, human. The settings on record: 20 Ebola-infected patients (Africa), dicycloplatin alone i.v., 1-3 weeks.
In the next data set the test system is tumor patients. Kind of data set: Effect of dicycloplatin on tumor-induced tissue edema and inflammation. In kind it is in vivo, human.
A further data set has as its system HCV virus. In words: In vitro efficacy of MD36792 and combination with AA011 and VK021 on HCV virus. It is filed as cell-based.
A further data set concerns cancer patients. Kind of data set: Effect of dicycloplatin on pain in cancer patients (Table 5). The settings on record: for pain, 5th day / pain, 17th day / pain, 31st day, then stop taking: 150 mg i.v. drip once every two days; for pain, 60th-90th (without using DCP ): after stopping. In kind it is in vivo, human. How it is done:
Among cancer patients, it is suitable especially to patients with advanced liver cancer, kidney cancer, bone metastases, brain metastases and bone cancer. […] Some patients stopped using dicycloplatin after a certain course of dicycloplatin treatment, and no pain occurred again.
Dose of the above cancer patients is taken once every two days, 150 mg/5% glucose aqueous solution is dripped intravenously.

In another data set the test system is cells. Kind of data set: Toxicity to the cells in the HCV combination study. In kind it is cell-based. Particulars: toxic CC50 to the cells; start concentration 200 μg/ml MD36792, 4 X dilution.
The test system of the next data set is HIV-infected individuals. Also noted: species or system human. The settings on record: in vivo.
In the next data set the test system is HBV patients. In words: Dicycloplatin alone in hepatitis B patients. Particulars: 12 hepatitis B patients, 1-3 months. In kind it is in vivo, human.
The subject of data set [5] is patients with hepatitis C. Kind of data set: Dicycloplatin alone in hepatitis C patients. The settings on record: 9 patients with hepatitis C, 1-3 months. It is filed as in vivo, human.
In the next data set the test system is Ebola virus. It is filed as cell-based.
[6] abbreviates: at 1000 μM and 250 μM concentration.
The mark [7] stands for this setting: Lung cancer to bone metastasis 5 cases.
The mark [8] stands for this setting: Lung cancer to brain metastasis 2 cases.

Entries after “also recorded” stand apart in the source; their conditions may differ.

`O=C1O[C@H]([C@@H](O)CO)C(O)=C1O` [VK021, vitamin C]: the antiviral effect entry in the data set on virus (setting [6]) is “certain antiviral effect”.
Take `Cc1cn([C@H]2C[C@H](N=[N+]=[N-])[C@@H](CO)O2)c(=O)[nH]c1=O` [zidovudine, Zidovudine, reference compound]: the “inhibitory effect on HIV infection” value in data set [1] is given as “significant inhibitory effect”.
Turning to `N[C@@H](CCC(=O)N[C@@H](CS)C(=O)NCC(=O)O)C(=O)O` [AA011, glutathione], in [2], the cytotoxicity entry is “no obvious cytotoxicity”. Moreover, the antiviral effect entry in the data set on virus (setting [6]) is on record as “certain antiviral effect”.
On to `C[C@@]1(O)[C@H](O)[C@@H](CO)O[C@H]1n1ccc(N)nc1=O` [2'CMC, reference compound], for which the antiviral effect result with virus (positive drug, better as the dose increases) was “good antiviral effect”.
For `COc1cc2c(cc1OC)[C@@H]1Cc3ccc(OC)c(OC)c3CN1CC2` [Rotundine, reference compound], in the data set on ICR mice (100 mg/kg, counted within 15 minutes), the “Twisting Number Mean” value turned out to be 2.8. In the data set with ICR mice (100 mg/kg, P=0.000), the “number of writhing compared with the model group” value was “statistically significantly suppressed”. Moreover, in the data set with ICR mice, the analgesic effect result is on record as “significant analgesic effects”.
Regarding Dicycloplatin [MD36792], in data set [3], the “inhibitory effect on HCV” value is “no inhibitory effect”. Also, the EC50 in data set [3] (72 hours, read-out: EC50 (50% inhibition) of HCV) is 121 µM; in the data set on HCV virus (start concentration 200 μg/ml MD36792, 4 X dilution), 15.62 µg/mL. Also, in the data set with Hepatitis B virus (HBV), the “inhibitory effect on the expression of HBeAg (e antigen) of HBV” value is given as “no inhibitory effect”. Also, the “inhibitory effect on the expression of HBsAg (surface antigen) of HBV” value with Hepatitis B virus (HBV) was “no inhibitory effect”. Also, in data set [4], the control or remission entry is “without any control or remission”. The virus index entry (in data set [4]; in the data set with HBV patients (dicycloplatin alone 150 mg once every two days (i.v. drip or oral)); in data set [5] (dicycloplatin alone 150 mg once every two days)) was “None of the patients showed a downward trend” each time. Moreover, the “inhibitory effect on HIV infection” value in [1] is “no inhibitory effect”. Further, the hepatic tissue edema result in the data set on tumor patients (liver cancer patients, infusion or oral administration for a period of time) is reported as “significantly disappeared or reduced”. Moreover, in the data set on tumor patients (lung cancer patients with brain metastases, oral or injection, one to two weeks), the “tissue edema in the brain caused by cancer metastasis” value is given as “basically eliminated”. In addition, the “SI (selection index of the antiviral effect)” value in the data set with HCV virus is recorded as 4.44. The “pain, 5th day” value with cancer patients (Bone cancer 3 cases) is “Pain gone”; with cancer patients (Kidney cancer 1 case), “Pain relieved”; in the data set with cancer patients (Liver cancer 5 cases), “Pain gone”; with cancer patients (setting [7]), “Pain gone”; in the data set on cancer patients (setting [8]), “Pain gone”. Also, the “pain, 17th day” value in the data set with cancer patients (Bone cancer 3 cases) is listed as “No pain”; in the data set with cancer patients (Kidney cancer 1 case), “Pain gone”; in the data set with cancer patients (Liver cancer 5 cases) it was “No pain”; with cancer patients (setting [7]) it was “No pain”; in the data set on cancer patients (setting [8]), “No pain”. The “pain, 31st day, then stop taking” value in the data set with cancer patients (Bone cancer 3 cases), with cancer patients (Kidney cancer 1 case), in the data set with cancer patients (Liver cancer 5 cases), with cancer patients (setting [7]) and in the data set on cancer patients (setting [8]) was “No pain” each time. The “pain, 60th-90th (without using DCP )” value in the data set with cancer patients (Bone cancer 3 cases), in the data set with cancer patients (Kidney cancer 1 case), with cancer patients (Liver cancer 5 cases), in the data set with cancer patients (setting [7]) and with cancer patients (setting [8]) was “No pain” throughout. In addition, the “treatment of pain caused by cancer” value in the data set with cancer patients (cancer patients, dicycloplatin injection or oral as the only treatment) is on record as “significant effect; also recorded: significant efficacy”. Further, in the data set on cells, the 50% cytotoxic concentration (CC50) stood at 69.4 µg/mL. In addition, in the data set with ICR mice (10, 20, 40 mg/kg), the “dose relation of analgesic effects” value is “dose-independent”. Besides, the “Twisting Number Mean” value in the data set on ICR mice (High dose 40 mg/kg, within 15 minutes) is given as 8.7; with ICR mice (Low dose 10 mg/kg, within 15 minutes), 15.2; in the data set on ICR mice (Middle dose 20 mg/kg, within 15 minutes), 14.8. Further, the analgesic effect entry is “significant analgesic effects” with ICR mice and “significant analgesic effect” with ICR mice (listed as dicycloplatin). For the same compound, in the data set on ICR mice (high-dose group (40 mg/kg), P=0.009), the “number of writhing compared with the model group” value was “statistically significantly suppressed”. Further, the liver function result (in the data set with HIV-infected individuals; with HBV patients (dicycloplatin alone); in [5] (dicycloplatin alone)) was “did not improve” each time. Further, the viral index entry in the data set with HIV-infected individuals (po) was “none showed a downward trend”. Moreover, the “inhibitory effect on Ebola virus infection” value in the data set with Ebola virus is given as “no inhibitory effect”.
For `NC(=O)c1ncn([C@@H]2O[C@H](CO)[C@@H](O)[C@H]2O)n1` [Ribavirin, reference compound], in data set [3], the “inhibitory effect on HCV” value was “significant inhibitory effect”.

As a reminder, the EC50 is the concentration needed to bring the measured effect to its halfway point. What is called CC50 is the concentration giving 50% cytotoxicity.
